Assay results from ChEMBL document CHEMBL5108030, “Structure activity relationships leading to the identification of the indirect activator of AMPK, R419” (Bioorg Med Chem, 2022).
Calls of active or inactive are those of the source. The calls are words filed in the database; no cut-off is given here.

How the values were obtained:
hERG (KCNH2) [1] = target: T1, hERG (KCNH2) (Homo sapiens, UniProt Q12809); assay: Inhibition of human ERG at 10 uM; type: toxicity
[2] = target: AMP-activated protein kinase, AMPK; assay: Activation of AMPK in human HepG2 cells assessed as reduction in mitochondrial ATP production incubated for 1 hr; type: cell-based
[3] = target: AMP-activated protein kinase, AMPK; assay: Activation of AMPK in human HepG2 cells assessed as increase in ACC phosphorylation at Ser79 incubated for 1 hr; type: cell-based
A549 = assay: Antiproliferative activity against human A549 cells assessed as cell growth inhibition incubated for 48 hrs by DAPI staining assay; type: functional, cell-based; conditions: A549, 48 h
NCI-H1299 = assay: Antiproliferative activity against human NCI-H1299 cells assessed as cell growth inhibition incubated for 48 hrs by DAPI staining assay; type: functional, cell-based; conditions: NCI-H1299, 48 h
Cytochrome P450 3A4 [4] = target: T2, Cytochrome P450 3A4 (Homo sapiens, UniProt P08684); assay: Inhibition of CYP3A4 (unknown origin); type: ADME
Cytochrome P450 3A4 [5] = target: T2, Cytochrome P450 3A4; assay: Inhibition of CYP3A4 (unknown origin) in presence of NADPH; type: ADME
[6] = Microsomal stability in human liver microsomes assessed as half life; type: ADME, Microsome
[7] = Clearance in rat at 1 mg/kg,iv measured upto 10 hrs; type: ADME, organism-based; conditions: in vivo
hERG (KCNH2) [8] = target: T1, hERG (KCNH2); assay: Inhibition of human ERG at 3 uM; type: toxicity
[9] = Volume of distribution at steady state in rat at 1 mg/kg,iv measured upto 10 hrs; type: ADME, organism-based; conditions: in vivo, read-out: Vdss
[10] = Drug concentration in diet-induced obesity model of C57BL/6J mouse at 200 mg/kg,po measured after 10 days; type: ADME, organism-based; conditions: in vivo, time 10 day, read-out: Drug uptake
[11] = Drug concentration in diet-induced obesity model of C57BL/6J mouse at 100 mg/kg,po measured after 10 days; type: ADME, organism-based; conditions: in vivo, time 10 day, read-out: Drug uptake
[12] = Drug concentration in C57BL/6J mouse at 5 mg/kg,po measured after 10 days; type: ADME, organism-based; conditions: in vivo, time 10 day, read-out: Drug uptake
[13] = Oral bioavailability in rat at 5 mg/kg measured upto 10 hrs; type: ADME, organism-based; conditions: in vivo
Mus musculus [14] = assay: Hypoglycemic activity in high fat diet-induced obesity mouse model assessed as improvement in glucose tolerance at 200 mg/kg,po for 4 weeks by OGTT; type: functional, organism-based
[15] = Drug concentration in high fat diet-induced obesity model of C57BL/6J mouse at 100 mg/kg,po measured after 10 days; type: ADME, organism-based; conditions: in vivo, time 10 day, read-out: Drug uptake
[16] = AUC in diet-induced obesity model of C57BL/6J mouse at 100 mg/kg,po measured after 10 days; type: ADME, organism-based; design: time 10 day, dose 100 mg/kg, route po; conditions: in vivo, 240 h
[17] = Half life in rat at 1 mg/kg,iv measured upto 10 hrs; type: ADME, organism-based; conditions: in vivo
[18] = AUC in high fat diet-induced obesity model of C57BL/6J mouse at 100 mg/kg,po measured after 10 days; type: ADME, organism-based; design: dose 100 mg/kg, time 10 day, route po; conditions: in vivo, 240 h
[19] = AUC in diet-induced obesity model of C57BL/6J mouse at 200 mg/kg,po measured after 10 days; type: ADME, organism-based; design: time 10 day, dose 200 mg/kg, route po; conditions: in vivo, 240 h
[20] = AUC in C57BL/6J mouse at 5 mg/kg,po measured after 10 days; type: ADME, organism-based; design: time 10 day, dose 5 mg/kg, route po; conditions: in vivo, 240 h
Mus musculus [21] = assay: Hypoglycemic activity in high fat diet-induced obesity mouse model assessed as decrease in AUC blood glucose at 200 mg/kg,po for 4 weeks by OGTT; type: functional, organism-based
[22] = AUC in rat at 5 mg/kg,po measured upto 10 hrs; type: ADME, organism-based; design: time < 10 hrs, dose 5 mg/kg, route po; conditions: in vivo

T1 sequence (Q12809 whole entry): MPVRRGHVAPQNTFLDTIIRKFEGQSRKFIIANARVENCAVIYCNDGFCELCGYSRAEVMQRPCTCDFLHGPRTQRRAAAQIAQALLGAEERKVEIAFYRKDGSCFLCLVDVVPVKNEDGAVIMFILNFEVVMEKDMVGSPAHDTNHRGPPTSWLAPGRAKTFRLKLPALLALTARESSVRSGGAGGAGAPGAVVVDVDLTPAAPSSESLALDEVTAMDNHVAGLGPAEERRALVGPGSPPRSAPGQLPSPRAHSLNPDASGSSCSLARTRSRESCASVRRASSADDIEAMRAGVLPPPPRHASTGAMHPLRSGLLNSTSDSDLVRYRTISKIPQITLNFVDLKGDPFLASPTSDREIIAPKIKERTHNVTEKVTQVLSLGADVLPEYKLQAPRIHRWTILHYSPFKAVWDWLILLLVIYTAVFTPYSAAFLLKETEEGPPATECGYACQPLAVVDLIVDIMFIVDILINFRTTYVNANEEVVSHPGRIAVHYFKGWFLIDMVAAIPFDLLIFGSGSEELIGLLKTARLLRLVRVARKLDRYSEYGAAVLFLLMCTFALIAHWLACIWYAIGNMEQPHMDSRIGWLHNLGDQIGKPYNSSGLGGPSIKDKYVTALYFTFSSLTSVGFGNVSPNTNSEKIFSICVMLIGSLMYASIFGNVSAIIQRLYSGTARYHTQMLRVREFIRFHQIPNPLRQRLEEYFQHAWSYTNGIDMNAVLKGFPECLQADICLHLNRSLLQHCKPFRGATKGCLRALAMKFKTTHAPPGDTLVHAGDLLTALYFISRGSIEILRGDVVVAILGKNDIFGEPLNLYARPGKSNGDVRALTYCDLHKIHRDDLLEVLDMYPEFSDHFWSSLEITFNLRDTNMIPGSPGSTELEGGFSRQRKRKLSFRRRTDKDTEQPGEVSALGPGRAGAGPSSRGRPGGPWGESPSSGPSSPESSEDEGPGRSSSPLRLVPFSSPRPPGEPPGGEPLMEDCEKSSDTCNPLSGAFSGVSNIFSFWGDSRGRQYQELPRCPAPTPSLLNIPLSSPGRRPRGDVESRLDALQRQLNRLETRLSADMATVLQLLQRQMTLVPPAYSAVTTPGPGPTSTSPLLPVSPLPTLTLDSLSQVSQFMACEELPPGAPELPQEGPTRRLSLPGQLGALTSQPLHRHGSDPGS
T2 sequence (P08684 whole entry): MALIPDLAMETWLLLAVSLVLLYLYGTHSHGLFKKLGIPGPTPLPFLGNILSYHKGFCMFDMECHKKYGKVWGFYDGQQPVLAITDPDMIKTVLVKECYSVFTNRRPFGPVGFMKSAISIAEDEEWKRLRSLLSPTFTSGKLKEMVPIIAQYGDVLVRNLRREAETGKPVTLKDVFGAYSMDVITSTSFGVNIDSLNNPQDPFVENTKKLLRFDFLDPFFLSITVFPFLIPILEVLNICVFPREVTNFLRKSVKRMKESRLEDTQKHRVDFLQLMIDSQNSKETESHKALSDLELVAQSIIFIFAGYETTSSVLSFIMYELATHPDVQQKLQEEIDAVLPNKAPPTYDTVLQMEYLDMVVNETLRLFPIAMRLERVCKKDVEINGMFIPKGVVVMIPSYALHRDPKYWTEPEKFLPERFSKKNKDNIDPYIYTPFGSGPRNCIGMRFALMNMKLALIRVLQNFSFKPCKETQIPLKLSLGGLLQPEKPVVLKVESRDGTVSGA

SMILES	inhibition at 10 µM (hERG (KCNH2) [1]) [%]	IC50 [2] [nM]	EC50 [3] [nM]	IC50 (A549) [µM]	IC50 (NCI-H1299) [µM]	IC50 (Cytochrome P450 3A4 [4]) [µM]	IC50 (Cytochrome P450 3A4 [5]) [µM]	half-life [6] [min]	clearance [7] [mL/min/kg]	inhibition at 3 µM (hERG (KCNH2) [8]) [%]	other results
COc1ccc(C(=O)C2CCN(C(=O)c3ccc(C(=O)NC4CCN(Cc5ccc(OC(F)(F)F)cc5)CC4)cn3)CC2)cc1	21	820	9	> 20	> 20	–	–	–	–	–	–
N#Cc1ccc(CN2CCC(NC(=O)c3ccc(C(=O)N4CCC(F)(C(=O)c5ccc(F)cc5)CC4)cn3)CC2)cc1	–	16	2	–	–	> 10	> 10	27	–	–	–
O=C(NC1CCN(Cc2ccc(F)cc2)CC1)c1ccc(C(=O)N2CCC(C(=O)c3ccc(-n4cccn4)cc3)CC2)nc1	85	890	21	5.93	6.58	–	–	–	–	–	–
N#Cc1ccc(CN2CCC(NC(=O)c3ccc(C(=O)N4CCN(Cc5ccc(F)cc5)CC4)cn3)CC2)cc1	–	–	1	–	–	–	–	55	200	36	–
COc1ccc(C(=O)C2CCN(C(=O)c3ccc(C(=O)NC4CCN(Cc5ccc(C#N)cc5)CC4)cn3)CC2)cc1	–	2.82	31	> 20	> 20	> 10	> 10	71	150	61	Vd [9]: 15.1 L/kg; concentration at 240 h [10]: 140 ng/mL; concentration at 240 h [11]: 84 ng/mL; concentration at 240 h [12]: 440 ng/mL; bioavailability [13]: 46%; Activity (Mus musculus [14]): Active; concentration at 240 h [15]: 64 ng/mL; AUC [16]: 1339 ng·h/kg; half-life [17]: 162 min; AUC [18]: 1283 ng·h/kg; AUC [19]: 2429 ng·h/kg; AUC [20]: 937 ng·h/kg; Activity (Mus musculus [21]): Active; AUC at 10 h [22]: 256 ng·h/mL
COc1ccc(OC2CCN(C(=O)c3ccc(C(=O)NC4CCN(Cc5ccc(C#N)cc5)CC4)nc3)CC2)cc1	–	60	11	–	–	> 10	> 10	68	71	46	–
COc1ccc(CC2CCN(C(=O)c3ccc(C(=O)NC4CCN(Cc5ccc(C#N)cc5)CC4)nc3)CC2)cc1	–	7	1	–	–	2	> 10	46	–	–	–
N#Cc1ccc(CN2CCC(NC(=O)c3ccc(C(=O)N4CCC(C(=O)c5ccc(F)cc5F)CC4)cn3)CC2)cc1	–	8	27	–	–	> 10	> 10	63	–	34	–
N#Cc1ccc(CN2CCC(NC(=O)c3ccc(C(=O)N4CCC(Oc5ccc(C#N)cc5)CC4)cn3)CC2)cc1	–	125	3	–	–	–	3.5	30	–	47	–
O=C(NC1CCN(Cc2ccc(F)cc2)CC1)c1ccc(C(=O)N2CCC(C(=O)c3ccc(N4CCCC4)cc3)CC2)nc1	82	730	12	8.67	9.27	–	–	63	269	–	–
